Assay results taken from patent US20240301319A1, “PERFUMING COMPOSITIONS” (FIRMNICH SA, priority 2017, published 2024).

Experiments:
[1] = Volatility of perfuming compounds (Tables 4 to 10), with top/middle/bottom note type; assay type: physicochemical
Method: In some aspects, the first perfume accord comprises perfuming compounds having a volatility ranging from 70,000 to 100 μg/l in air. In some aspects, perfuming compounds having a volatility ranging from 70,000 to 100 μg/l in air are referred to as “top notes”.
In some aspects, the second perfume accord comprises perfuming compounds having a volatility ranging from 99 to 50 μg/l in air. In some aspects, perfuming compounds having a volatility ranging from 99 to 50 μg/l in air are referred to as “middle notes”.
In some aspects, the third perfume accord comprises perfuming compounds having a volatility ranging from 49 to 0.1 μg/l in air. In some aspects, perfuming compounds having a volatility ranging from 49 to 0.1 μg/l in air are referred to as “bottom notes”.
Tables 4 to 10 describe top, middle and bottom note perfuming compounds for watery, green, fruity, citrus, sweet, gourmand and woody notes respectively.

[2] = Odor threshold and odor value of perfuming compounds (Tables 4 to 10); details: for Odor Threshold (μg/l air): perfuming compounds having a green note
[3] = Table 10, perfuming compounds having a woody note, note type by volatility
[4] = note type (Top/Middle/Bottom) by volatility, perfuming compounds having a green note
[5] = perfuming compounds having a green note
[6] = Table 8, perfuming compounds having a sweet note
[7] = Table 8, perfuming compounds having a sweet note, note type by volatility
[8] = Table 9, perfuming compounds having a gourmand note, note type by volatility
[9] = Table 6, perfuming compounds having a fruity note
[10] = Table 6, perfuming compounds having a fruity note, note type by volatility

Row | SMILES | Type [1, 3] | Volatility ([1]; Table 10, woody note) [μg/l air] | Type [1, 4] | Volatility (μg/l air) [1, 5] [μg/l air] | Odor Threshold ([2]; Table 10, woody note) [μg/l air] | Odor Threshold (μg/l air) [2] [μg/l air] | other results
1 | CC1CC(C)(C)OC(Cc2ccccc2)O1 (stereo not drawn) |  |  | Bottom | 29.99 |  | 5.26E−02 | 
2 | COc1nccnc1CCCC(C)C |  |  | Top | 195.24 |  | 1.18E−07 | 
3 | CC(=O)OCCC1=CCC2CC1C2(C)C (stereo not drawn) | Middle | 60.02 |  |  | 1.10E−01 |  | 
4 | CC1(C)CC=C(CCC=O)CC1 |  |  | Top | 417.92 |  | 2.06E−03 | 
5 | CC/C=C\CC1=C(C)CCC1=O |  |  |  |  |  |  | Volatility [1, 6]: 56.72 μg/l air; Type [1, 7]: Middle; Volatility ([1]; Table 9, gourmand note): 56.72 μg/l air; Type [1, 8]: Middle; Odor Threshold [2, 6]: 2.16E−04 μg/l air; Odor Value [2, 6]: 2.63E+05; Odor Threshold ([2]; Table 9, gourmand note): 2.16E−04 μg/l air
6 | C=CC(C)=CCC=C(C)C |  |  | Top | 3480.57 |  | 2.57E−02 | Volatility [1, 9]: 3480.57 μg/l air; Type [1, 10]: TOP (perfuming compounds having a volatility ranging from 70,000 to 100 μg/l in air are referred to as “top notes”)
7 | COc1cc(C=O)ccc1OC(=O)C(C)C |  |  |  |  |  |  | Volatility [1, 9]: 1.01 μg/l air; Type [1, 10]: Bottom; Volatility [1, 6]: 1.01 μg/l air; Type [1, 7]: Bottom; Volatility ([1]; Table 9, gourmand note): 1.01 μg/l air; Type [1, 8]: Bottom; Odor Threshold [2, 9]: 7.33E−05 μg/l air; Odor Value [2, 9]: 1.38E+04; Odor Threshold [2, 6]: 7.33E−05 μg/l air; Odor Value [2, 6]: 1.38E+04; Odor Threshold ([2]; Table 9, gourmand note): 7.33E−05 μg/l air
8 | COC(OC)C(C)(C)CC=C(C)C | Top | 1311.32 |  |  | 1.26E−02 |  | 
9 | CCOC(=O)CC(C)=O |  |  | Top | 2885.67 |  | 5.83E−02 | Volatility [1, 9]: 2885.67 μg/l air; Type [1, 10]: TOP (perfuming compounds having a volatility ranging from 70,000 to 100 μg/l in air are referred to as “top notes”)
10 | CC(C)=CC1CC(C)CCO1 (stereo not drawn) |  |  | Top | 2483.93 |  | 8.77E−04 | 
11 | CCC(=O)/C=C/C1=C(C)CCCC1(C)C |  |  |  |  |  |  | Volatility [1, 6]: 15.81 μg/l air; Type [1, 7]: Bottom; Volatility ([1]; Table 9, gourmand note): 15.81 μg/l air; Type [1, 8]: Bottom; Odor Threshold [2, 6]: 1.16E−04 μg/l air; Odor Value [2, 6]: 1.37E+05; Odor Threshold ([2]; Table 9, gourmand note): 1.16E−04 μg/l air

Continued, in another order:

Row | Type [1, 3] | Volatility ([1]; Table 10, woody note) [μg/l air] | Type [1, 4] | Volatility (μg/l air) [1, 5] [μg/l air] | SMILES | Odor Threshold ([2]; Table 10, woody note) [μg/l air] | Odor Threshold (μg/l air) [2] [μg/l air] | other results
12 | Bottom | 29.81 |  |  | CC1C(C)(C)C2=C(C(=O)CCC2)C1(C)C (stereo not drawn) | 4.57E−03 |  | 
13 | Bottom | 9.23 |  |  | CC1(C)CCC[C@@]2(C)[C@H]1CC[C@@]1(C)OCC[C@@H]21 | 2.16E−03 |  | 
14 | Middle | 63.61 |  |  | CC(=O)CCC1=C(C)CCCC1(C)C | 8.51E−03 |  | Volatility [1, 6]: 63.61 μg/l air; Type [1, 7]: Middle; Odor Threshold [2, 6]: 8.51E−03 μg/l air; Odor Value [2, 6]: 7.48E+03
15 | Top | 735.37 |  |  | CC(=O)O[C@@H]1CC2CC[C@]1(C)C2(C)C | 4.46E−02 |  | 
16 | Top | 216.42 |  |  | CCC(=O)O[C@H]1C[C@@H]2CC[C@@]1(C)C2(C)C | 4.55E−02 |  | 
17 | Bottom | 1.74 |  |  | CC1(CO)CC1CC1CC2CC2(C)C1(C)C (stereo not drawn) | 2.18E−06 |  | 
